Results on eleven compounds are retold here after patent US10208074B2, “Pyrazole compounds and method for making and using the compounds” (Rigel Pharmaceuticals, Inc., priority 2015, dated 2019).

One assay deals with IL-23p19. Kind of assay: LPS induced IL23p19 in THP-1 cells (with IFNγ primed) assay. It counts as cell-based, Human. The conditions noted are these: THP-1 cells, IFNγ primed, LPS 1 ug/mL, 18 hours, 10 pt, read-out: IL23-p19 ELISA, THP1-IFNy, LPS, 10 pt EC50. The text has this: LPS Induced IL23p19 in THP-1 Cells (with IFNγ Primed) Assay
THP-1 Cells (ATCC, Cat#TIB-202), Dimethyl Sulfoxide (DMSO) (Sigma-Aldrich, Cat#D2650), RPMI 1640 (Cellgro, Cat#10-040-CM), Fetal Bovine Serum (Sigma, Cat#F4135), Albumin From Bovine Serum (BSA) (Sigma-Aldrich, Cat#A7906), LPS (Serotype K-235, Sigma, Product Number L 2143), IFNγ (Peprotech, Cat#300-02) Capture antibody: Human IL-23p19 ELISA (e-Bioscience, Cat. #14-7238-85), Detection antibody: Primary Mouse Biotinylated anti-human IL-12(p40/p70) (e-Bioscience, Cat. #13-7129-85), Secondary HRP-conjugated Streptavidin (R&D Systems, Cat#DY998), 1×PBST Washing Buffer (PBS-Tween tablet) (VWR International, Cat#80058-558), ELISA Blocking Buffer (PBS with 1% BSA), ELISA Dilution Buffer (PBS with 1% BSA), 384 Well Flat-Bottom, MaxiSorp Black Immuno Plates (Thermo Scientific, Cat#12-565-346), 384 Well Flat-Bottom, White Tissue Culture Plates (Thermo Scientific, Cat#12-565-343), Super Signal ELISA Pico Chemiluminescent Substrate (Thermo Scientific, Cat#37070), Cell Titer Glo reagent (Promega, Cat#G7573), Positive control, IKK2VI inhibitor (Calbiochem, Cat#401483), AquaMax 4000 plate washer (Molecular Devices), Luminometer, Wallac Victor2 1420 Multilabel Counter.
On day 1, 50K/well THP-1 cells were seeded and primed with IFNγ (50 ng/mL) in 384-well plates for about 18 hours in RPMI media with 10% FBS. On day 2, the compound was serially diluted in DMSO from 5 mM in 3-fold dilutions, and then diluted 1:125 in RPMI media with 10% FBS. 50 μL/well 2× compound was added to 50 μL/well THP-1 cells (with IFNγ primed) in duplicate in 384 well tissue culture plates. The cells were pre-incubated with compound for 1 hour at 37° C., 5% CO2 before addition of 10 μL/well 11×LPS to give a final concentration of 1 ug/mL LPS. Day 3, after stimulation for 18 hours at 37° C., 5% CO2, the assay plate was centrifuged and 70 μL/well supernatant was harvested. IL-23p19 protein in 70 μL/well of supernatant was measured by sandwich ELISA, and 25 μl/well Cell Titer Glo reagent was added to the remaining cells to measure compound toxicity.
Maxisorp immuno ELISA plates were pre-coated with 25 μL/well of anti-IL-23p19 capture antibody (2.5 ug/mL) in PBS overnight at room temperature. After washing with 1× PBST, the plates were blocked using 100 μL/well of 1% BSA in PBS for 2 hours at room temperature. The plates were washed three times with 1×PBST and 70 μL/well supernatant were added. The plates were incubated at room temperature for 2 hours with shaking and washed three times with 1×PBST. 25 μL/well of biotin labeled anti-IL-12(p40/p70) detection antibody (100 ng/mL) in PBS with 1% BSA was added and the plates were incubated at room temperature for 2 hours with shaking. After washing three times with 1×PBST, 25 μL/well of streptavidin-HRP (1:200) in PBS with 1% BSA was added and the plates were incubated at room temperature for 20 minutes with shaking. The plates were washed three times with 1× PBST and 25 μL/well of Super Signal ELISA Pico Chemiluminescent Substrate were added. The plates were read with a luminometer, and the chemiluminescence values were entered into Athena (Rigel) for curve fitting, EC50 calculation, and database storage.
(In general: An ELISA detects its analyte on a solid surface through an enzyme-linked reagent.)

The next assay deals with IL-23 (p19/p40). As to the kind of experiment: IL23-p19 ELISA, Dendritic, LPS (compound screening using DC cells). Format: cell-based, Human. To be noted: PBMC-derived DC cells, IFNγ primed, LPS 1 μg/ml, 18 hours, 10 pt, read-out: IL23-p19 ELISA, Dendritic, LPS, 10 pt, EC50. As for the experimental part:
Compound Screening Using DC Cells
Human PBMC cells (400 million) obtained from the vendor were transferred into a T-175 flask containing 15 ml RPMI media (10% FBS) and incubate for 2 hours at 37° C. After 2 hours, the media including floating cells was aspirated out carefully and 12 ml of fresh RPMI media (10% FBS) containing GMCSF (100 ng/ml) and IL4 (20 ng/ml) was added, and the flask was kept in a 37° C. incubator for 7 days.
After 3 days, fresh GMCSF (100 ng/ml) and IL4 (20 ng/ml) were added to the flask and the incubation continued. After 7 days, the fully differentiated cells were harvested by spinning down (1200 rpm/5 min) and aspirating the media. The cells were suspended in fresh RPMI media (10% FBS) containing 50 ng/ml IFNγ (1000 U/ml) and then plated (50K/well in 100 μl) onto a white clear bottom 96 well plate and left in a 37° C. incubator for 24 hours.
After 24 hours incubation, 100 μl of RPMI media was added containing 2× concentrated test compound per well to the above cell-culture media (final concentration becomes 1×) and the plates were pre-incubated for 1 hour at 37° C. before stimulating with LPS.
After 1 hour compound pre-incubation, 10 piper well of 20× concentrated LPS solution in RPMI media was added to give a final concentration of 1 μg/ml. The mixture was shaken and incubated the plates at 37° C. for an additional 18 hours.
155 μl of the supernatant was harvested from each well carefully (without the tip touching the bottom of the well) and to the remaining 50 μl/well of the cell culture plate was added 50 μl of Cell Titer Glo reagent. The mixture was incubated for 1-2 minutes on a shaker and the plate was read for luminescence intensity to determine the compound cytotoxicity. The cell culture supernatant collected above was used to carry out IL23 ELISA (65 μl -Supernatant) and IL10 ELISA (90 μl—Supernatant) as described below.
Human IL-23 (p19/p40) ELISA Protocol (e-Biosciences)
To 10.5 ml PBS add 50 μl of anti-IL23 (p19) was added capture antibody (2.5 μg/ml). The mixture was mixed well and 100 μl of the coating solution was added to each well of the 96 well white plates from Pierce. The wells were covered and incubated overnight at 4° C.
The anti-IL23 (p19)-antibody-coated plates were washed 2× using TBST (use plate washer) and blocked using 200 μl of 0.5% Casein for 1.5-2 hours at room temperature with shaking.
The plates were washed 2× using TBST and the supernatant was transferred (65 μl/well) to the above pre-blocked/IL23(p19)-antibody-coated 96 well plate, and incubated at room temperature for 1.5 hours with shaking.
The plates were washed 4× using TBST (plate washer) and 100 μl/well detection antibody solution prepared from 2 μl of biotin labeled anti-IL-12 (p40/p70) antibody in 11 ml 1% BSA/PBS solution (1-5000 dilution) was added. The plates were incubated for 1 hour with shaking at Room temperature.
Again, the plates were washed 4× with TBST and 100 μl of HRP labeled Streptavidin (R&D Systems) solution (10 μl/10 ml 1% BSA solution) was added, and the plates were incubated at room temperature for another 45 minutes with shaking.
After 45 minutes, the plates were washed with TBST 4× and 100 ul/well Super Signal ELISA Pico Chemiluminescent Substrate from Pierce (3.5 ml A+3.5 ml B+3.5 ml MQ water) was added. The plates were shaken for 1-2 minutes then read on a plate reader.

pEC50: −log10 of the molar value. Counter-ions that a name gives are not always drawn. Like-named read-outs stand apart in the source and are kept apart here.

For the compound `COCCOCCn1cc(NC(=O)c2csc(-c3cn[nH]c3)n2)c(-c2ccccn2)n1` [II-37, N-(1-(2-(2-methoxyethoxy)ethyl)-3-(pyridin-2-yl)-1H-pyrazol-4-yl)-2-(1H-pyrazol-4-yl)thiazole-4-carboxamide], the pEC50 is 6.89 in the assay with IL-23p19 (Homo sapiens, THP-1, 18 h) and 6.72 with IL-23 (p19/p40) (Homo sapiens, 18 h). The matching figures for `Cn1cc(NC(=O)c2csc(-c3cnn(COP(=O)(O)O)c3)n2)c(-c2ccccn2)n1` [II-35, (4-(4-((1-methyl-3-(pyridin-2-yl)-1H-pyrazol-4-yl)carbamoyl)thiazol-2-yl)-1H-pyrazol-1-yl)methyl dihydrogen phosphate]: 6.69 and 6.53. On to `CN1CCN(CCn2cc(NC(=O)c3csc(-c4cn[nH]c4)n3)c(-c3ccccn3)n2)CC1` [II-61, N-(1-(2-(4-methylpiperazin-1-yl)ethyl)-3-(pyridin-2-yl)-1H-pyrazol-4-yl)-2-(1H-pyrazol-4-yl)thiazole-4-carboxamide], for which the pEC50 in the assay with IL-23p19 (Homo sapiens, THP-1, 18 h) was 7.65; in the assay with IL-23 (p19/p40) (Homo sapiens, 18 h), 7.30.

For `O=C(Nc1cn(CC(F)(F)F)nc1-c1ccccn1)c1csc(-c2cn[nH]c2)n1` [II-94, 2-(1H-pyrazol-4-yl)-N-(3-(pyridin-2-yl)-1-(2,2,2-trifluoroethyl)-1H-pyrazol-4-yl)thiazole-4-carboxamide], the negative logarithm of the EC50 (pEC50) in the assay on IL-23p19 (Homo sapiens, THP-1, 18 h) was 6.51; in the assay with IL-23 (p19/p40) (Homo sapiens, 18 h) it was 7.48. The matching figures for `Cn1cc(NC(=O)c2ccc(-c3cn[nH]c3)o2)c(-c2ccc(OCC(C)(C)O)cn2)n1` [Compound I-107, N-(3-(5-(2-hydroxy-2-methylpropoxy)pyridin-2-yl)-1-methyl-1H-pyrazol-4-yl)-5-(1H-pyrazol-4-yl)furan-2-carboxamide]: 6.07 and 6.52. In the case of `COc1ccc(COCC(C)(C)OC(=O)n2cc(-c3nc(C(=O)Nc4cn(C)nc4-c4ccccn4)cs3)cn2)cc1` [II-6, 1-((4-methoxybenzyl)oxy)-2-methylpropan-2-yl 4-(4-((1-methyl-3-(pyridin-2-yl)-1H-pyrazol-4-yl)carbamoyl)thiazol-2-yl)-1H-pyrazole-1-carboxylate], the negative-log EC50 (pEC50) was 7.06 with IL-23p19 (Homo sapiens, THP-1, 18 h) and 5.16 with IL-23 (p19/p40) (Homo sapiens, 18 h).

Consider `CCOCCn1cc(NC(=O)c2csc(-c3cn[nH]c3C(F)(F)F)n2)c(-c2ccccn2)n1` [II-19, N-(1-(2-ethoxyethyl)-3-(pyridin-2-yl)-1H-pyrazol-4-yl)-2-(5-(trifluoromethyl)-1H-pyrazol-4-yl)thiazole-4-carboxamide, formic acid salt], for which the pEC50 with IL-23p19 (Homo sapiens, THP-1, 18 h) is 5.40; in the assay with IL-23 (p19/p40) (Homo sapiens, 18 h), 5.45.

As for `COCCn1cc(NC(=O)c2ccc(-c3c[nH]nc3C)o2)c(-c2ccccn2)n1` [Compound I-9, N-(1-(2-methoxyethyl)-3-(pyridin-2-yl)-1H-pyrazol-4-yl)-5-(3-methyl-1H-pyrazol-4-yl)furan-2-carboxamide], the pEC50 is 6.55 in the assay on IL-23p19 and 6.51 in the assay on IL-23 (p19/p40). For `O=C(Nc1cn(C2CCOC2)nc1-c1ccccn1)c1csc(-c2cn[nH]c2)n1` (centres unmarked) [II-43, 2-(1H-pyrazol-4-yl)-N-(3-(pyridin-2-yl)-1-(tetrahydrofuran-3-yl)-1H-pyrazol-4-yl)thiazole-4-carboxamide formic acid salt], the pEC50 with IL-23p19 (Homo sapiens, THP-1, 18 h) was 7.56; in the assay with IL-23 (p19/p40) (Homo sapiens, 18 h) it was 7.30. Regarding `CCO[C@H]1C[C@@H](n2cc(NC(=O)c3csc(-c4c[nH]nc4C)n3)c(-c3ccccn3)n2)C1` [II-92, N-(1-((1,3-cis)-3-ethoxycyclobutyl)-3-(pyridin-2-yl)-1H-pyrazol-4-yl)-2-(3-methyl-1H-pyrazol-4-yl)thiazole-4-carboxamide], the negative-log EC50 (pEC50) in the assay on IL-23 (p19/p40) (Homo sapiens, 18 h) is 6.59.

For `Cn1cc(NC(=O)c2ccc(-c3cn[nH]c3)o2)c(-c2ccc(N3CCOCC3)cn2)n1` [Compound I-105, N-(1-methyl-3-(5-morpholinopyridin-2-yl)-1H-pyrazol-4-yl)-5-(1H-pyrazol-4-yl)furan-2-carboxamide], in the assay with IL-23 (p19/p40) (Homo sapiens, 18 h), the negative-log EC50 (pEC50) is 7.58.

In general, pEC50 refers to the negative decadic logarithm of the EC50, by convention in mol/L.
